pIC50: −log10 of the molar value.
System: 653999-131-R-J2-PDC complex spheroids, growth % test/control
Assay: Anticancer human tumor 653999-131-R-J2-PDC patient-derived lung adenocarcinoma cell line growth inhibition [AhR]
Settings: for pIC50: curve of first compound; for viability, T/C: stronger effect = lower value
Excerpt: Multicellular complex tumor spheroid response to aryl hydrocarbon receptor antagonists in combination with a variety of drugs and investigational agents in selected tumor cell lines
The current study was undertaken to assess response to aryl hydrocarbon receptor antagonists in combination with standard-of-care drugs and investigational agents in solid tumor complex spheroid models. Complex spheroids include a stromal component modeled by human endothelial cells (HUVEC) and fibroblasts modeled by human mesenchymal stem cells (MSCs). The concentration ranges selected for each drug and investigational agent were based upon clinically achievable concentrations if the clinical Cmax of the agent was known.
Compounds. The drugs and investigational agents: BAY 2416964 (NSC825713), GNF351 (NSC835774), CH-223191 (NSC835775), CPI-455 (NSC825282), aza-TdCyd (NSC777586), decitabine (NSC127716), belinostat (NSC758774), entinostat (NSC756642), pevonedistat (NSC761192), tazemetostat (NSC777109), talazoparib (NSC765396), olaparib (NSC753686), selinexor (NSC780203), nedisertib (M3814, NSC802822), bortezomib (NSC756655), venetoclax (NSC766270), doxorubicin (NSC123127), elimusertib (BAY189344, NSC800525), ceralasertib (AZD6738, NSC777638), TAK-243 (NSC785004), alisertib (NSC759677), etoposide (NSC141540), topotecan (NSC609699), eribulin (NSC707389), gemcitabine (NSC613327), carboplatin (NSC241240), cisplatin (NSC119875), and SN-38 (NSC673596) were obtained from the National Cancer Institute (NCI) Developmental Therapeutics Program Chemical Repository (32). The FDA-approved anticancer drug set is available from the Developmental Therapeutics Program at https://dtp.cancer.gov/organization/dscb/obtaining/available plates.htm. […] The stock solutions were prepared in dimethyl sulfoxide (DMSO, Sigma-Aldrich, St. Louis, MO, cat. D2650), except for the platinum compounds which were prepared in saline (Quality Biological, Gaithersburg, MD, cat. 114-055-101), at 800-fold the tested concentration and stored at -70 degrees C prior to their use. All drugs and investigational agents were tested over a range starting from a high concentration at or near the clinical Cmax and decreasing in half-log increments. If the clinical Cmax for an agent had not been determined, the highest concentration tested was 10 microM (Table 1).
Cell Culture. All cells were maintained in an incubator at 37 degrees C and 5% CO2 with 95% humidity. The PDC lines were cultured according to standard operating procedures established by the NCI PDMR (https://pdmr.cancer.gov). Briefly, all PDCs were thawed and cultured in Matrigel-coated flasks prepared with a working solution of 1X Ham's F-12 nutrient mix, without supplementation (Invitrogen, Waltham, MA, cat. 11765054), 100 U/mL penicillin-streptomycin (Invitrogen, cat. 15140122), and 2.5% Matrigel (Corning Inc., Corning, NY, cat. 354248) for the first three passages. All PDCs were cultured in complete DMEM/F-12 media containing advanced DMEM/F-12 (Invitrogen, cat. 12634028), 4.9% defined fetal bovine serum, heat inactivated (HyClone Laboratories Inc., Logan, UT, cat. SH30070.03HI), 389 ng/mL hydrocortisone (Sigma-Aldrich, cat. H4001), 9.7 ng/mL human EGF recombinant protein (Invitrogen, cat. PHG0313), 23.4 microg/mL adenine (Sigma-Aldrich, cat. A2786), 97.3 U/mL penicillin-streptomycin (Invitrogen, cat. 15140122), 1.9 mM L-glutamine (Invitrogen, cat. 25030081), and 9.7 microM Y-27632 dihydrochloride (Tocris Bioscience, Bristol, United Kingdom, cat. 1254). The PDCs were cultured in complete DMEM/F12 media without 10 microM Y-27632 dihydrochloride for at least two passages prior to the screen. The established cell lines NCI-H1341 and […] were cultured in DMEM/F-12, HEPES (Invitrogen, cat. 11330032), 5% defined fetal bovine serum (HyClone Laboratories Inc., cat. SH30070.03), ITS premix universal culture supplement [insulin (5 microg/mL), transferrin (5 microg/mL), and selenious acid (5 ng/mL)] […]

[1] = second compound 0.1 µM, first compound 0.0316 µM
[2] = second compound 0.1 µM, first compound 0.1 µM
[3] = second compound 0.1 µM, first compound 0.316 µM
[4] = second compound 0.1 µM, first compound 1 µM
[5] = second compound 0.316 µM, first compound 0.0316 µM
[6] = second compound 0.316 µM, first compound 0.1 µM
[7] = second compound 0.316 µM, first compound 0.316 µM
[8] = second compound 0.316 µM, first compound 1 µM
[9] = second compound 1 µM, first compound 0.0316 µM
[10] = second compound 1 µM, first compound 0.1 µM
[11] = second compound 1 µM, first compound 0.316 µM
[12] = second compound 1 µM, first compound 1 µM
[13] = second compound 3.16 µM, first compound 0.0316 µM
[14] = second compound 3.16 µM, first compound 0.1 µM
[15] = second compound 3.16 µM, first compound 0.316 µM
[16] = second compound 3.16 µM, first compound 1 µM
[17] = second compound 10 µM, first compound 0.0316 µM
[18] = second compound 10 µM, first compound 0.1 µM
[19] = second compound 10 µM, first compound 0.316 µM
[20] = second compound 10 µM, first compound 1 µM
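Note: spheroids exposed to agents for seven days.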

| SMILES | pIC50 (second compound 0.1 µM) | pIC50 (second compound 0.316 µM) | pIC50 (second compound 1 µM) | pIC50 (second compound 3.16 µM) | pIC50 (second compound 10 µM) | viability, T/C [1] [%] | viability, T/C [2] [%] | viability, T/C [3] [%] | viability, T/C [4] [%] | viability, T/C [5] [%] | viability, T/C [6] [%] | viability, T/C [7] [%] | viability, T/C [8] [%] | viability, T/C [9] [%] | viability, T/C [10] [%] | viability, T/C [11] [%] | viability, T/C [12] [%] | viability, T/C [13] [%] | viability, T/C [14] [%] | viability, T/C [15] [%] | other results |
| --- | --- | --- | --- | --- | --- | --- | --- | --- | --- | --- | --- | --- | --- | --- | --- | --- | --- | --- | --- | --- | --- |
| Nc1ncn(C2CC(O)C(CO)O2)c(=O)n1 (stereo not given) + Cc1ccccc1N=Nc1ccc(NC(=O)c2ccnn2C)c(C)c1 | < 6.00 | < 6.00 | < 6.00 | < 6.00 | < 6.00 | 95.5 | 87.5 | 79.9 | 76.9 | 80.8 | 83.2 | 81.1 | 71.7 | 88 | 93.3 | 78.9 | 78.1 | 88 | 77.8 | 84.7 | viability, T/C (second compound 0.1 µM, first compound 0.00316 µM): 97.5%; viability, T/C (second compound 0.1 µM, first compound 0.01 µM): 99.3%; viability, T/C (second compound 0.316 µM, first compound 0.00316 µM): 100%; viability, T/C (second compound 0.316 µM, first compound 0.01 µM): 93.8%; viability, T/C (second compound 1 µM, first compound 0.00316 µM): 87.5%; viability, T/C (second compound 1 µM, first compound 0.01 µM): 94.6%; viability, T/C (second compound 3.16 µM, first compound 0.00316 µM): 88.6%; viability, T/C (second compound 3.16 µM, first compound 0.01 µM): 92.9%; viability, T/C [16]: 72.7%; viability, T/C (second compound 10 µM, first compound 0.00316 µM): 84.3%; viability, T/C (second compound 10 µM, first compound 0.01 µM): 78.7%; viability, T/C [17]: 82.7%; viability, T/C [18]: 78.6%; viability, T/C [19]: 77.5%; viability, T/C [20]: 70.8% |
| CC1COCCN1c1cc(C2(S(C)(=N)=O)CC2)nc(-c2ccnc3[nH]ccc23)n1 (stereo not given) + CC(CO)NC(=O)c1cc(-c2ccc(Cl)cc2)nn(-c2cnn(C)c2)c1=O | 5.05 | < 5.00 | < 5.00 | 5.10 | 5.40 | 102 | 97.6 | 97.8 | 87.3 | 101 | 95.6 | 103 | 83.3 | 101 | 95.4 | 101 | 91 | 92.7 | 107 | 100 | viability, T/C (second compound 0.1 µM, first compound 3.16 µM): 75.2%; viability, T/C (second compound 0.1 µM, first compound 10 µM): 47.1%; viability, T/C (second compound 0.316 µM, first compound 3.16 µM): 71.3%; viability, T/C (second compound 0.316 µM, first compound 10 µM): 52.6%; viability, T/C (second compound 1 µM, first compound 3.16 µM): 73.9%; viability, T/C (second compound 1 µM, first compound 10 µM): 51.5%; viability, T/C [16]: 88.8%; viability, T/C (second compound 3.16 µM, first compound 3.16 µM): 55.6%; viability, T/C (second compound 3.16 µM, first compound 10 µM): 48.5%; viability, T/C [17]: 111%; viability, T/C [18]: 98.5%; viability, T/C [19]: 100%; viability, T/C [20]: 78%; viability, T/C (second compound 10 µM, first compound 3.16 µM): 51.5%; viability, T/C (second compound 10 µM, first compound 10 µM): 41.8% |
